Results taken from patent publication US20240090503A1, “FUNGICIDAL OXADIAZOLES AND THEIR MIXTURES” (FMC CORPORATION, priority 2020, published 2024).
Marks after values point to notes of the source that are not given here.

Experiments:
Format in all cases: in vivo
[1] = test system: Phakopsora pachyrhizi (the causal agent of Asian soybean rust); assay: Test A: preventive spray on soybean seedlings, Asian soybean rust, visual disease rating; settings: soybean seedlings
Method in brief: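 Compound in acetone/water (50/50) with 250 ppm PEG400 sprayed to run-off on soybean seedlings; inoculated next day with Phakopsora pachyrhizi spores. Held 24 h at 22° C in saturated atmosphere, then 8 days in a 22° C growth chamber before visual rating as % disease control relative to controls.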

[2] = test system: Zymoseptoria tritici (the causal agent of wheat leaf blotch); assay: Test B: preventive spray on wheat seedlings, wheat leaf blotch, visual disease rating; settings: test suspension 250 ppm; wheat seedlings
Method in brief: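 This is a preventive test: spray application preceded Zymoseptoria tritici spore inoculation by one day. Test suspensions were in acetone/water with 250 ppm PEG400 surfactant, at the listed ppm rate. After 48 h saturated humidity at 24° C and 17 days at 20° C, visual ratings scored control from 0 to 100%.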

[3] = test system: Puccinia recondita f. sp. tritici (the causal agent of wheat leaf rust); assay: Test C: preventive spray on wheat seedlings, wheat leaf rust, visual disease rating; settings: wheat seedlings
Method in brief: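 Wheat seedlings sprayed to run-off with compound in acetone/water (50/50) with 250 ppm PEG400, then inoculated with spores the following day. After 24 h saturated humidity at 20° C. and 6 days in growth chamber at 20° C., disease rated visually as % control relative to untreated controls.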

[4] = test suspension 10 ppm, 100 = 100% disease control, 0 = no control

| SMILES | Test A disease control rating ([1]; test suspension 50 ppm) | Test B disease control rating [2] | Test C disease control rating ([3]; test suspension 50 ppm) | Test A disease control rating [1, 4] | Test C disease control rating ([3]; test suspension 10 ppm) | Test A disease control rating ([1]; test suspension 250 ppm) | Test C disease control rating ([3]; test suspension 250 ppm) |
| --- | --- | --- | --- | --- | --- | --- | --- |
| CN(C)C(=O)C1=NOC(Cn2cc(-c3noc(C(F)(F)F)n3)cn2)C1 (stereo not drawn) [compound 306] | 0% | 10* % | 0% | – | – | – | – |
| CCOC(=O)c1cnn(CCn2cc(-c3noc(C(F)(F)F)n3)cn2)c1 [compound 307] | 0% | 0* % | 0% | – | – | – | – |
| COC(=O)c1ccc(CCn2cc(-c3noc(C(F)(F)F)n3)cn2)cc1 [compound 310] | 0% | 0* % | 0% | – | – | – | – |
| COC(=O)c1ccc(Cn2cc(-c3noc(C(F)(F)F)n3)cn2)cc1 [compound 311] | 0% | 0* % | 0% | – | – | – | – |
| COC(=O)c1cc(COc2ccc(-c3noc(C(F)(F)F)n3)cc2)on1 [compound 312] | – | 0* % | – | 0% | 0% | – | – |
| FC(F)(F)c1nc(-c2ccc(OCc3cn4ccccc4n3)cc2)no1 [compound 313] | – | 14* % | – | 77% | 0% | – | – |
| CN(C)C(=O)c1cc(COc2ccc(-c3noc(C(F)(F)F)n3)cc2)on1 [compound 314] | – | 86* % | – | 99% | 0% | – | – |
| CN(C)C(=O)c1coc(Cc2ccc(-c3noc(C(F)(F)F)n3)cc2)n1 [compound 315] | – | 97* % | – | 100% | 99% | – | – |
| COC(=O)c1ccc(COc2ccc(-c3noc(C(F)(F)F)n3)cc2)s1 [compound 317] | – | 54* % | – | 0% | 0% | – | – |
| FC(F)(F)c1nc(-c2ccc(OCc3ccon3)cc2)no1 [compound 318] | – | 11* % | – | 0% | 0% | – | – |
| FC(F)(F)c1nc(-c2ccc(OCc3cn4cccnc4n3)cc2)no1 [compound 319] | – | 33* % | – | 97% | 0% | – | – |
| FC(F)(F)c1nc(-c2ccc(OCc3nc4ncccc4o3)cc2)no1 [compound 320] | – | 33* % | – | 97% | 0% | – | – |
| O=S1(=O)CCCCN1Cc1ccc(-c2noc(C(F)(F)F)n2)cc1 [compound 321] | – | 99* % | – | – | – | 100% | 100% |
| O=S1(=O)CCCN1Cc1ccc(-c2noc(C(F)(F)F)n2)cc1 [compound 322] | – | 95* % | – | – | – | 100% | 100% |
| O=S1(=O)CCCCN1Cc1ccc(-c2noc(C(F)(F)F)n2)s1 [compound 323] | – | 92* % | – | – | – | 100% | 100% |
| O=S1(=O)CCCN1Cc1ccc(-c2noc(C(F)(F)F)n2)s1 [compound 324] | – | 80* % | – | – | – | 100% | 100% |
| O=C1COCCN1Cc1ccc(-c2noc(C(F)(F)F)n2)s1 [compound 325] | – | 36* % | – | – | – | 100% | 100% |
| FC(F)(F)c1nc(-c2cnn(CCCn3cc(-c4noc(C(F)(F)F)n4)cn3)c2)no1 [compound 326] | – | 1* % | – | – | – | 84% | 67% |
| O=C(NCC1CC1)c1coc(Cc2ccc(-c3noc(C(F)(F)F)n3)cc2)n1 [compound 327] | – | 94* % | – | 100% | 100% | – | – |

| SMILES | Test A disease control rating ([1]; test suspension 50 ppm) | Test B disease control rating [2] | Test C disease control rating ([3]; test suspension 50 ppm) | Test A disease control rating [1, 4] | Test C disease control rating ([3]; test suspension 10 ppm) | Test A disease control rating ([1]; test suspension 250 ppm) | Test C disease control rating ([3]; test suspension 250 ppm) |
| --- | --- | --- | --- | --- | --- | --- | --- |
| O=C(NCC(F)(F)C(F)(F)F)c1coc(Cc2ccc(-c3noc(C(F)(F)F)n3)cc2)n1 [compound 328] | – | 0* % | – | 100% | 100% | – | – |
| O=C(NC1CSC1)c1coc(Cc2ccc(-c3noc(C(F)(F)F)n3)cc2)n1 [compound 329] | – | 98* % | – | 100% | 98% | – | – |
| CC(C)(NC(=O)c1coc(Cc2ccc(-c3noc(C(F)(F)F)n3)cc2)n1)C(F)(F)F [compound 331] | – | 97* % | – | 99% | 94% | – | – |
| O=C(NC1CCOC1=O)c1coc(Cc2ccc(-c3noc(C(F)(F)F)n3)cc2)n1 (stereo not drawn) [compound 332] | – | 99* % | – | 100% | 99% | – | – |
| C=CCOC(=O)c1coc(Cc2ccc(-c3noc(C(F)(F)F)n3)cc2)n1 [compound 334] | – | 92* % | – | 99% | 86% | – | – |
| CC(C)COC(=O)c1coc(Cc2ccc(-c3noc(C(F)(F)F)n3)cc2)n1 [compound 335] | – | 73* % | – | 100% | 94% | – | – |
| Cc1noc(C)c1COc1ccc(-c2noc(C(F)(F)F)n2)cc1 [compound 338] | – | 10* % | – | 99% | 0% | – | – |
| O=C(NC1CC1)c1csc(Cc2ccc(-c3noc(C(F)(F)F)n3)cc2)n1 [compound 342] | – | 99* % | – | 100% | 100% | – | – |
| NC(=O)c1csc(Cc2ccc(-c3noc(C(F)(F)F)n3)cc2)n1 [compound 343] | – | 97* % | – | 100% | 100% | – | – |
| CCOC(=O)c1csc(Cc2ccc(-c3noc(C(F)(F)F)n3)cc2)n1 [compound 344] | – | 96* % | – | 100% | 93% | – | – |
| O=C(O)c1csc(Cc2ccc(-c3noc(C(F)(F)F)n3)cc2)n1 [compound 345] | – | 50* % | – | 96% | 68% | – | – |
| CCOC(=O)c1cnn(Cn2nc(-c3noc(C(F)(F)F)n3)ccc2=O)c1 [compound 346] | – | 0* % | – | 0% | 0% | – | – |
| CCOC(=O)c1cnn(CCn2nc(-c3noc(C(F)(F)F)n3)ccc2=O)c1 [compound 347] | – | 0* % | – | 0% | 0% | – | – |
| CCNC(=O)c1ccc(COc2ccc(-c3noc(C(F)(F)F)n3)cc2)s1 [compound 352] | – | 0* % | – | 87% | 68% | – | – |
| COC(=O)c1ccc(COc2ccc(-c3noc(C(F)(F)F)n3)cc2)cc1 [compound 354] | – | 20* % | – | 0% | 0% | – | – |
| FC(F)(F)c1nc(-c2ccc(OCc3nc4ccccc4o3)cc2)no1 [compound 355] | – | 4* % | – | 0% | 0% | – | – |
| CN(C)N1C(=O)C(Cl)=C(Oc2ccc(-c3noc(C(F)(F)F)n3)cc2)C1=O [compound 356] | – | 96* % | – | – | – | 99% | 94% |
| CC(C)(C)NN1C(=O)C(Cl)=C(Oc2ccc(-c3noc(C(F)(F)F)n3)cc2)C1=O [compound 357] | – | 99* % | – | – | – | 98% | 91% |
| CCOC(=O)c1cnn(CCCn2nc(-c3noc(C(F)(F)F)n3)ccc2=O)c1 [compound 358] | – | 0* % | – | 0% | 0% | – | – |
